# Experimental data taken from patent US5081253A, “Imidazo(4,5-C)pyridines as antiosteoporotic agents” (American Home Products Corporation, priority 1990, dated 1992).
# Columns and labels:
# [1] = tested on: Rat Limb Bones (PTH induced bone resorption); assay: Bone Resorption Assay: 45Ca Release from Rat Limb Bones (PTH Induced); format: cell-based, rat (Sprague-Dawley CD)
# Description: The purpose of this assay is to identify compounds that inhibit basal or stimulated bone resorption in culture.
# The ability of 2-substituted-imidazo[4,5-c]pyridines to modify the process of bone resorption was evaluated essentially as described by L.G. Raisz, Bone resorption in tissue culture. Factors influencing the response to parathyroid hormone.
# Timed pregnant Sprague-Dawley CD® rats (Charles River) are administered 100 μCi ^45 CaCl2 (NEN calcium -45 NEZ-013) in 100 μL of 0.9% saline, subcutaneously, on day 18 of gestation. The rats are sacrificed the following day by CO2 asphyxiation. The fetuses are removed and the right forelimbs excised and placed in a Petri dish containing ice cold explant medium consisting of modified BGJb -Fitton Jackson media (custom formulation, Gibco No. 78-0088) adjusted to pH 7.3 to which 10 mM TES is added. […] Under a dissecting microscope, the bones are gently cleaned of adherent tissue and the cartilaginous ends removed. Incubation and drug treatment. […] The preincubation medium is brought to 37° C. prior to transfer of bones. The preincubation medium consists of the modified BGJb medium (with salts and glucose as above), pH 7.3, containing 29 mM NaHCO3. […] For compounds that require nonaqueous solvents, dilutions are made from the appropriate stock solution with medium. In these instances, basal and bone resorption stimulated controls exposed to an equivalent concentration of the vehicle are included. […] The right ulna and radius from each fetus are used. Both bones are subjected to the same treatment and each treatment group consists of bones from 4 or more fetuses. Treatments are randomly assigned using a preclinical statistics program (PS-ALLOC). After a 48 hour incubation at 37° C. in 5% CO2, the bones are removed from the medium and extracted in 0.5 mL of 0.1N HCl for 1 or more days. Duplicate 150 μL aliquots of the incubation medium and the bone extract are analyzed for ^45 Ca radioactivity in 5 mL of liquid scintillation cocktail.
# The percentage of bone ^45 Ca released into the medium is determined as follows: [formula] […]
# [2] = tested on: osteopenia induced by denervation of the sciatic nerve in rats; assay: Denervation Induced Osteopenia in Rats; format: in vivo, rat (female Sprague Dawley CD)
# From the text: The purpose of this assay is to evaluate the effect, in rats, of agents on the reduction in bone mass (osteopenia) induced by immobilization resulting from surgical severance (denervation) of the sciatic nerve.
# The animals are housed in plastic cages (4 or 5 rats/cage) with food (rat purina 500 chow) and water ad libitum; 14/10 day/night cycle.
# After one week of in-house acclimatization, the animals are randomly divided into groups of 6 to 10 rats/group. Each rat is weighed, anesthetized with an intraperitoneal administration of 100 mg/kg ketamine (Bristol Laboratories, Syracuse, N.Y.) and 0.75 mg/kg Acepromazine (Aveco, Ft. Dodge, Iowa). The left hind limb is shaved and denervated by making a lateral incision parallel to the femur and by surgically removing half of a centimeter of the sciatic nerve adjacent to caudofemoralis and adductor brevis muscles. The incision is closed with wound clips. After surgery, the rats are housed in cages with absorbent bedding to minimize additional trauma to the immobilized limb. A 24 hour post-surgery recovery period is allowed before the initiation of the drug treatment.
# The concentration of the drug stock is calculated to be delivered in a volume of 0.1 mL/100 gram body weight. The drug solution or a uniform suspension is prepared in 1% Tween 80 in normal saline. The drugs are administered via oral or parenteral routes daily (five times a week) for four weeks.
# A sequential triple labeling of mineralized tissue is employed to determine the osseous changes (especially the bone formation) and the mineralization rates. Each animal is administered 90 mg/kg Xylenol orange (Fisher Scientific Company), S.C., 15 mg/kg Calcein (Sigma Chemical Company), S.C. and 15 mg/kg Demeclocycline (Sigma Chemical Company), i.p., approximately 21 days, 10 days and 2 days prior to the termination of the study, respectively.
# At the end of the fourth week, each rat is weighed, anesthetized with an intraperitoneal administration of 100 mg/kg ketamine with 0.75 mg/kg Acepromazine and approximately 4 mL of blood collected via cardiac puncture. The anesthetized rats are euthanized by exposure to carbon dioxide. The femora and tibiae from both limbs are dissected free of soft tissue. (i) Femora are ashed at ~1100° C. for 16 hours using a muffle furnace. --(ii) Proximal tibia are fixed, dehydrated and embedded undecalcified in a methyl methacrylate-glycol methacrylate mixture. Longitudinal tissue sections (10 microns) are prepared on a Polycut S microtome (Reichert). Staining is performed on free-floating sections using a modified Goldner's stain, which are then mounted and coverslipped.
# Cancellous bone content in the proximal tibia is quantified (as two dimensional bone mineral area [B.Ar]) with an image analysis processing device (software developed by Drexel University).
# The areas of the tibia selected for cancellous bone content evaluation are the primary and secondary spongiosa. To select and standardize this area for evaluation, the epiphyseal growth plate-metaphyseal junction is oriented parallel to the abscissa of the digitizing screen. Bone elements 1.7 mm (secondary spongiosa) and 0.2 mm (primary spongiosa) from the growth plate and equidistant from the flanking cortical elements are then quantified as described above. The total area evaluated is 2.30 mm wide and 1.45 mm deep, constituting a 3.34 mm^2 area.
# Body weight, femur mass (dried or ashed) and trabecular (cancellous) bone mineral area (B.Ar) are determined.
# The difference (both absolute and percent change) in femur mass and bone mineral area between intact (control) and denervated limbs of a treatment group are compared with that for the vehicle group using a one-way analysis of variance with Dunnett's test, or other multiple comparison methods.
# The results are reported in Table I and II under the heading In Vivo.
# [3] = Table II, 25 mg/kg, route not given
# [4] = Table I, concentration not given
Compound,"Inhibition of Bone Resorption, PTH Induced ([1]; Table II, 10 μg/mL)","Inhibition of Bone Resorption, In Vivo [2, 3]","Inhibition of Bone Resorption, PTH Induced ([1]; Table I, 10 μg/mL)","Inhibition of Bone Resorption, In Vivo ([2]; po, 672 h)",also measured
"2-[[(3,5-Dimethoxyphenyl)methyl]thio]-1H-imidazo[4,5-c]pyridine [Example 44]",Active,Inactive,–,–,–
"COc1cccc(C[S+]([O-])c2nc3cnccc3[nH]2)c1 (single isomer, unassigned) [Example 57]",–,–,–,–,"Inhibition of Bone Resorption, PTH Induced [1, 4]: Active"
"COc1cccc(C[S+]([O-])c2nc3cnccc3[nH]2)c1 (single isomer, unassigned) [Example 58, [R-(-)]-2-[[(3-Methoxyphenyl)methyl]sulfinyl]-1H-imidazo[4,5-c]pyridine One Quarter Hydrate]",–,–,–,–,"Inhibition of Bone Resorption, PTH Induced [1, 4]: Active"
"COc1cccc(CCSc2nc3cnccc3[nH]2)c1 [Example 16, 2-[[(3-Methoxyphenyl)ethyl]thio]-1H-imidazo[4,5-c]pyridine]",Inactive,–,–,–,"Inhibition of Bone Resorption, In Vivo ([2]; Table II, 25 mg/kg, p.o.): Inactive"
"Clc1cc2c(cc1CSc1nc3cnccc3[nH]1)OCO2 [Example 24, 2-[[(6-Chloro-1,3-benzodioxol-5-yl)methyl]thio]-1H-imidazo[4,5-c]pyridine]",Active,–,–,–,–
"COc1ccc(C[S+]([O-])c2nc3cnccc3[nH]2)cc1 (stereo not drawn) [Example 27, 2-[[(4-Methoxyphenyl)methyl]sulfinyl]-1H-imidazo[4,5-c]-pyridine-One Third Hydrate]",–,–,Active,Inactive,–
"COc1cc(C[S+]([O-])c2nc3cnccc3[nH]2)cc(OC)c1OC (stereo not drawn) [Example 29, 2-[[(3,4,5-Trimethoxyphenyl)methyl]sulfinyl]-1H-imidazo[4,5-c]pyridine-One Third Hydrate]",–,–,–,Inactive,"Inhibition of Bone Resorption, PTH Induced [1, 4]: Inactive"
"N#Cc1ccccc1CSc1nc2cnccc2[nH]1 [Example 38, 2-[(1H-Imidazo[4,5-c]pyridin-2-ylthio)methyl]benzonitrile]",Inactive,Inactive,–,–,–
"N#Cc1ccccc1C[S+]([O-])c1nc2cnccc2[nH]1 (stereo not drawn) [Example 39, 2-[[(1H-Imidazo[4,5-c]pyridin-2-yl)sulfinyl]methyl]benzonitrile]",–,–,Active,Inactive,–
"Fc1ccccc1CSc1nc2cnccc2[nH]1 [Example 40, 2-[[(2-Fluorophenyl)methyl]thio]-1H-imidazo[4,5-c]pyridine]",Active,Inactive,–,–,–
"[O-][S+](Cc1ccccc1F)c1nc2cnccc2[nH]1 (stereo not drawn) [Example 41, 2-[[(2-Fluorophenyl)methyl]sulfinyl]-1H-imidazo[4,5-c]pyridine Quarter Hydrate]",–,–,Active,Inactive,–
"COc1ccccc1CSc1nc2cnccc2[nH]1 [Example 42, 2-[[(2-Methoxyphenyl)methyl]thio]-1H-imidazo[4,5-c]pyridine]",Active,–,–,–,–
"COc1ccccc1C[S+]([O-])c1nc2cnccc2[nH]1 (stereo not drawn) [Example 43, 2-[[(2-Methoxyphenyl)methyl]sulfinyl]-1H-imidazo[4,5-c]pyridine]",–,–,Active,–,–
"COc1cc(C[S+]([O-])c2nc3cnccc3[nH]2)cc(OC)c1 (stereo not drawn) [Example 45, 2-[[(3,5-Dimethoxyphenyl)methyl]sulfinyl]-1H-imidazo[4,5-c]pyridine]",–,–,Active,Inactive,–
"c1ccc(Oc2cccc(CSc3nc4cnccc4[nH]3)c2)cc1 [Example 46, 2-[[(3-Phenoxyphenyl)methyl]thio]-1H-imidazo[4,5-c]pyridine]",Inactive,Inactive,–,–,–
"[O-][S+](Cc1cccc(Oc2ccccc2)c1)c1nc2cnccc2[nH]1 (stereo not drawn) [Example 47, 2-[[(3-Phenoxyphenyl)methyl]sulfinyl]-1H-imidazo[4,5-c]pyridine]",–,–,Active,Inactive,–
"O=[N+]([O-])c1cccc(CSc2nc3cnccc3[nH]2)c1 [Example 48, 2-[[(3-Nitrophenyl)methyl]thio]-1H-imidazo[4,5-c]pyridine]",–,Inactive,–,–,–
"O=[N+]([O-])c1cccc(C[S+]([O-])c2nc3cnccc3[nH]2)c1 (stereo not drawn) [Example 49, 2-[[(3-Nitrophenyl)methyl]sulfinyl]-1H-imidazo[4,5-c]pyridine 0.15 Dimethylformamide]",–,–,–,Inactive,–
"COc1ccc(CSc2nc3cnccc3[nH]2)cc1C [Example 50, 2-[[(4-Methoxy-3-methylphenyl)methyl]thio]-1H-imidazo[4,5-c]pyridine]",–,Inactive,–,–,–
"COc1ccc(C[S+]([O-])c2nc3cnccc3[nH]2)cc1C (stereo not drawn) [Example 51, 2-[[(4-Methoxy-3-methylphenyl)methyl]sulfinyl]-1H-imidazo[4,5-c]pyridine]",–,–,–,Inactive,–
"CCOc1cccc(CSc2nc3cnccc3[nH]2)c1 [Example 52, 2-[[(3-Ethoxyphenyl)methyl]thio]-1H-imidazo[4,5-c]pyridine]",Inactive,Inactive,–,–,–
"CCOc1cccc(C[S+]([O-])c2nc3cnccc3[nH]2)c1 (stereo not drawn) [Example 53, 2-[[(3-Ethoxyphenyl)methyl]sulfinyl]-1H-imidazo[4,5-c]pyridine One Third Hydrate]",–,–,Active,–,–
"Br.Br.Oc1cccc(CSc2nc3cnccc3[nH]2)c1 [Example 54, 3-[[(1H-Imidazo[4,5-c]pyridin-2-yl)thio]methyl]phenol Dihydrobromide]",Inactive,Inactive,–,–,–
